Laboratory results taken from US8895509B2, “MIR-200 family induces mesenchymal-to-epithelial transition (MET) in ovarian cancer cells” (Georgia Tech Research Corporation, priority 2010, dated 2014).
“Also recorded” adds a separate entry of the source.

How the values were obtained:
[1] = test system: HEY cells; assay: morphology of HEY cells after microRNA transfection; type: cell-based, human; conditions: transfected with 30 nM miRNA, vs negative control
Description: The OVCAR3 cell line was originally established from the ascites of a patient with poorly differentiated papillary epithelial OC [Hamilton et al., Cancer Res 1985, 45:3668-76]. The OVCAR3 cell line was obtained from the American Type Culture Collection (Manassas, Va.). The HEY cell line was derived from a patient with moderately differentiated papillary cystadenocarcinoma of the ovary [Buick et al., Cancer Res 1985, 45:3668-76]. The HEY cell line was kindly provided by Gordon Mills, Department of Molecular Therapeutics, University of Texas, MD Anderson Cancer Center.
(§1) 6×10^4 cells per well were seeded in 24-well plates. After 24 h, cells were transfected with 30 nM of miR-429 and miR-320 miRNA oligonucleotides (Ambion, Austin, Tex.) using Lipofectamine 2000 reagent (Invitrogen, Carlsbad, Calif.). The Ambion Pre-miRNA Precursor Negative Control was used as a control. Three days after transfection, cells were split and transfected again. This process was repeated every 3 days until 21 days when cells were assayed for response.

[2] = test system: HEY cells; assay: microarray profiling (Affymetrix HG-U133 Plus 2.0) of miR-429 transfected HEY cells; type: cell-based, human; conditions: for Fold-change: miR-429 transfected HEY cells
Procedure: as §1
Microarray analyses were performed using the Affymetrix system (HG-U133 Plus 2.0; Santa Clara, Calif.) as previously described [Bowen et al., BMC Med Genomics 2009, 2:71]. Briefly, the expression data were analyzed using MAS 5.0 Statistical Algorithm encoded in the Affymetrix Expression Console application. The expression values were normalized across samples by Z-score calculation using Spotfire Decision Site software. […] Gene enrichment analyses were carried out using GeneGO (http://www.genego.com/) gene ontology software.

Substance: miR-429: miR-200 family member; mature miRNA UAAUACUGUCUGGUAAAACCGU (SEQ ID NO: 6); miRNA oligonucleotide (Ambion) transfected at 30 nM (listed as RNA, chemistry not given here; listed as Homo sapiens) [miR-200 family member; miRNA oligonucleotide (Ambion) transfected at 30 nM]
- morphological change of HEY cells [1]: morphological change from an elongated, spindle-shaped, mesenchymal phenotype to a more rounded, epithelial-like phenotype; also recorded: change from an elongated mesenchymal-like morphology to a rounded epithelial-like morphology
- Fold change (miR-429 transfected HEY cells relative to negative controls) ([2]; gene AARS): −2.57
- Fold change (miR-429 transfected HEY cells relative to negative controls) ([2]; gene ABCF2): −3.48
- Fold change (miR-429 transfected HEY cells relative to negative controls) ([2]; gene ALDH1L2): −11.31
- Fold change (miR-429 transfected HEY cells relative to negative controls) ([2]; gene ANK2): −3.58
- Fold change (miR-429 transfected HEY cells relative to negative controls) ([2]; gene ANKRD23): −7.62
- Fold change (miR-429 transfected HEY cells relative to negative controls) ([2]; gene ASAM): −3.48
- Fold change (miR-429 transfected HEY cells relative to negative controls) ([2]; gene ASNS): −6.82
- Fold-change ([2]; gene B3GALNT2): −2.16
- Fold change (miR-429 transfected HEY cells relative to negative controls) ([2]; gene BCHE): −2.93
- Fold change (miR-429 transfected HEY cells relative to negative controls) ([2]; gene C6orf105): −2.48
- Fold change (miR-429 transfected HEY cells relative to negative controls) ([2]; gene C11orf57): −2.41
- Fold change (miR-429 transfected HEY cells relative to negative controls) ([2]; gene C12orf39): −10.06
- Fold change (miR-429 transfected HEY cells relative to negative controls) ([2]; gene C12orf55): −6.06
- Fold change (miR-429 transfected HEY cells relative to negative controls) ([2]; gene C17orf51): −3.46
- change in expression by microarray ([2]; gene CAV2 (epithelial marker)): up-regulated
- Fold change (miR-429 transfected HEY cells relative to negative controls) ([2]; gene CBS): −2.68
- Fold change (miR-429 transfected HEY cells relative to negative controls) ([2]; gene CCDC148): −3.39
- Fold change (miR-429 transfected HEY cells relative to negative controls) ([2]; gene CCDC152): −3.10
- Fold change (miR-429 transfected HEY cells relative to negative controls) ([2]; gene CCND2): −4.03
- Fold change (miR-429 transfected HEY cells relative to negative controls) ([2]; gene CCNJ): −2.45
- Fold change (miR-429 transfected HEY cells relative to negative controls) ([2]; gene CDC42EP1): −3.48
- Fold change (miR-429 transfected HEY cells relative to negative controls) ([2]; gene CDKAL1): −2.64
- Fold change (miR-429 transfected HEY cells relative to negative controls) ([2]; gene CDO1): −13.45
- Fold-change ([2]; gene CFL2): −1.75
- Fold change (miR-429 transfected HEY cells relative to negative controls) ([2]; gene CHST10): −4.03
- Fold change (miR-429 transfected HEY cells relative to negative controls) ([2]; gene CLGN): −2.79
- Fold change (miR-429 transfected HEY cells relative to negative controls) ([2]; gene COLEC12): −16.11
- Fold change (miR-429 transfected HEY cells relative to negative controls) ([2]; gene CXCL3): −2.57
- Fold change (miR-429 transfected HEY cells relative to negative controls) ([2]; gene CYCS): −2.73
- Fold change (miR-429 transfected HEY cells relative to negative controls) ([2]; gene DDR2): −2.68
- Fold-change ([2]; gene DNAJB4): −1.53
- Fold-change ([2]; gene DPY19L1): −1.64
- change in expression by microarray ([2]; gene DSP (epithelial marker)): up-regulated
- Fold-change ([2]; gene EIF2B5): −2.10
- change in expression by microarray ([2]; gene EPCAM (epithelial marker)): up-regulated
- Fold change (miR-429 transfected HEY cells relative to negative controls) ([2]; gene EPHB1): −4.06
- Fold change (miR-429 transfected HEY cells relative to negative controls) ([2]; gene ERN1): −3.51
- Fold change (miR-429 transfected HEY cells relative to negative controls) ([2]; gene EXOSC6): −2.87
- Fold change (miR-429 transfected HEY cells relative to negative controls) ([2]; gene F2RL2): −5.35
- Fold change (miR-429 transfected HEY cells relative to negative controls) ([2]; gene FLJ34077): −2.73
- Fold change (miR-429 transfected HEY cells relative to negative controls) ([2]; gene FOXP3): −3.76
- Fold change (miR-429 transfected HEY cells relative to negative controls) ([2]; gene GALNT12): −2.39
- Fold change (miR-429 transfected HEY cells relative to negative controls) ([2]; gene GART): −3.94
- Fold change (miR-429 transfected HEY cells relative to negative controls) ([2]; gene GAS7): −12.55
- Fold change (miR-429 transfected HEY cells relative to negative controls) ([2]; gene GLIPR1): −2.73
- Fold change (miR-429 transfected HEY cells relative to negative controls) ([2]; gene GLT8D2): −4.76
- Fold change (miR-429 transfected HEY cells relative to negative controls) ([2]; gene GPATCH4): −2.87
- Fold-change ([2]; gene GREM1): −2.10
- Fold change (miR-429 transfected HEY cells relative to negative controls) ([2]; gene GRK4): −3.14
- Fold change (miR-429 transfected HEY cells relative to negative controls) ([2]; gene HIF3A): −3.12
- Fold change (miR-429 transfected HEY cells relative to negative controls) ([2]; gene HORMAD1): −10.48
- Fold change (miR-429 transfected HEY cells relative to negative controls) ([2]; gene HS6ST3): −2.64
- Fold change (miR-429 transfected HEY cells relative to negative controls) ([2]; gene HSPA9): −2.48
- Fold change (miR-429 transfected HEY cells relative to negative controls) ([2]; gene INTS4): −2.81
- Fold change (miR-429 transfected HEY cells relative to negative controls) ([2]; gene JDP2): −3.46
- Fold change (miR-429 transfected HEY cells relative to negative controls) ([2]; gene KIAA1853): −3.32
- Fold change (miR-429 transfected HEY cells relative to negative controls) ([2]; gene KLHL13): −2.57
- Fold-change ([2]; gene LDLRAD3): −1.74
- Fold change (miR-429 transfected HEY cells relative to negative controls) ([2]; gene LMO4): −3.14
